Tests used:
[1] = Solubility in PGMEA; type: physicochemical; conditions: in propylene glycol monomethyl ether acetate (PGMEA)
[2] = Photolysis of PAGs in acetonitrile under 365 nm irradiation (photoreactivity); type: physicochemical; conditions: for Solubility × Photoreactivity: product of solubility in PGMEA and relative photoreactivity at 365 nm
From the text: A photoresist composition typically comprises PAG, polymers, additives and solvents. The performance of a photoresist composition is mainly dependent on the properties of the PAG and polymer components. To formulate a high-performance photoresist composition, more photosensitive PAGs are typically selected. The photosensitivity of a PAG is typically directly related to the strength of the generated acid and the photoreactivity of the PAG. For a series of PAGs producing the same latent acid, their photosensitivity is related only to their photoreactivity. Thus evaluating the photosensitivity of a PAG can be achieved by studying its photoreactivity. The higher photoreactivity, the higher photosensitivity. The photoreactivity can be investigated by photolysis of a PAG in its dilute solution under low exposure intensity (to avoid side reactions which don't generate the desired acid). The change in the concentration of a PAG upon irradiation can be determined by measuring the absorbance of the PAG at the maximum absorption wavelength.
(§1) Photolysis of PAGs was carried out in acetonitrile in air at room temperature. The sodium salt of tetrabromophenol blue (TBPBNa), an acid indicator dye, which has a maximum absorption at 618 nm, was purchased from Aldrich (indicator grade) and used as received. Irradiation of the solution of the PAGs (3×10^−5 M) was performed using a Cole-Parmer UV 15 W bench lamp (EW-97605-50) at 365 nm. Light intensity was measured using an UV Power Puck II radiometer from EIT Inc. UV-Vis spectra were run on a Thermo Scientific Evolution 201 UV-visible spectrophotometer.
Photolysis of NIT, comparative compound A, D-1, and D-2 was examined in acetonitrile. The absorption band at 397 nm gradually decreases upon irradiation, indicating the progress of photoreaction with the increase of exposure dose of energy. Assuming the photoreaction is first-order, plot of natural log of changes in absorbance with exposure dose of energy gives the photoreaction constant of D-2 (i.e. the slope of the linear trendline) (FIG. 2). The photoreaction constants of other compounds were similarly determined under the same irradiation condition.
Comparing the constants of A, D-1, and D-2 with that of NIT normalized to one gives the relative photoreactivity (Table 7). The photoreactivity for PAG (e.g. D-2) according to the present disclosure is ˜8 times greater than that of NIT and ˜3 times greater than that of Comparative Compound A. The formation of acid upon irradiation was confirmed by observing the spectral changes of the acid indicator, TBPBNa at 618 nm.

[3] = UV-Vis spectra of PAG compounds; type: physicochemical; conditions: for absorbance at i-line of a mercury lamp: compared with NIT (FIG. 4); for strong absorption band: 0.001% w/v (FIG. 4)
Protocol: FIG. 4 is a UV-Vis spectra of compounds NIT, D-1, and D-2 in PGMEA and D-4 in acetonitrile (0.001% w/v).
as §1

Row | Compound | Solubility (w/w %) in PGMEA [1] [% w/w %] | Solubility × Photoreactivity [2] [%] | absorbance at i-line of a mercury lamp [3] | strong absorption band ([3]; in PGMEA) [nm] | melting point [°C] | absorption band ([2]; in acetonitrile, band decreases upon irradiation (FIG. 1)) [nm] | g-line absorbance ([3]; FIG. 4) | strong absorption band ([3]; in acetonitrile) [nm]
1 | CCC(C)Oc1ccc(/C=C/c2ccc3c4c(cccc24)C(=O)N(OS(=O)(=O)C(F)(F)F)C3=O)cc1 (stereo not drawn) | 4.3 | 37.4 |  |  |  |  |  | 
2 | O=C1c2cccc3c(C#Cc4ccccc4)ccc(c23)C(=O)N1OS(=O)(=O)C(F)(F)F [Comparative Compound A, reference compound] | 1.0 | 2.5 |  |  |  |  |  | 
3 | CCCCOC(=O)/C=C/c1ccc2c3c(cccc13)C(=O)N(OS(=O)(=O)C(F)(F)F)C2=O [Compound D-1] | 6.9 | 12.4 | much larger than that of NIT | 363 | 151 to 152 |  |  | 
4 | O=C1c2cccc3c(/C=C/c4ccccc4)ccc(c23)C(=O)N1OS(=O)(=O)C(F)(F)F [Compound D-2] | 1.6 | 13.1 | much larger than that of NIT | 397 | 182 to 184 | 397 |  | 
5 | CC(C)(C)c1ccc(/C=C/c2ccc3c4c(cccc24)C(=O)N(OS(=O)(=O)C(F)(F)F)C3=O)cc1 [Compound D-3] |  |  |  |  | 227 to 229 |  |  | 
6 | CC(C)(C)Oc1ccc(/C=C/c2ccc3c4c(cccc24)C(=O)N(OS(=O)(=O)C(F)(F)F)C3=O)cc1 [Compound D-4] |  |  | much larger than that of NIT |  |  |  | large | 415
7 | O=C1c2cccc3cccc(c23)C(=O)N1OS(=O)(=O)C(F)(F)F [NIT, N-Hydroxynaphthalimide triflate, reference compound] | 1.7 | 1.7 |  |  |  |  |  | 

Source: US20200089110A1, “SULFONIC ACID DERIVATIVE COMPOUNDS AS PHOTOACID GENERATORS IN RESIST APPLICATIONS” (Heraeus Precious Metals North America Daychem LLC, priority 2015, published 2020)
